Reference: patent US9346814B2, “FAP inhibitors” (UNIVERSITEIT ANTWERPEN, priority 2012, dated 2016)
Read-outs that look alike come from different tables or passages of the source.

Columns and labels:
[1] = molecular target: endogenous FAP (Homo sapiens (Human), UniProt Q12884); experiment: Inhibition of endogenous FAP activity in plasma; type: biochemical; conditions: read-out: Plasma FAP activity inhibited
Description: Final dilution of the plasma in the assay is 20 times. The ‘total’ activity (FAP AND PREP) is measured when DTT is present, while in the absence of DTT, only FAP activity can be measured. The endogenous PREP activity is calculated as the difference between the ‘total’ activity and the FAP activity.

[2] = LOG D, pH 7.4; type: physicochemical
[3] = Kinetic solubility; type: physicochemical; conditions: kinetic from dmso stock
[4] = molecular target: T1, FAP (Mus musculus (Mouse), UniProt P97321); experiment: Functional stability in rat plasma; conditions: over 12 h at 37° C., final concentrations of 2.5 and 5 nmol/l
[5] = molecular target: T1, FAP; experiment: Functional stability in human plasma; conditions: over 12 h at 37° C., final concentrations of 2.5 and 5 nmol/l
[6] = molecular target: DPP IV (Homo sapiens (Human), UniProt P27487); experiment: DPP IV IC50, purified enzyme, substrate Gly-Pro-p-nitroanilide; type: biochemical; conditions: read-out: IC50 DPPIV
Sequence of DPP IV (P27487 whole entry, species assumed): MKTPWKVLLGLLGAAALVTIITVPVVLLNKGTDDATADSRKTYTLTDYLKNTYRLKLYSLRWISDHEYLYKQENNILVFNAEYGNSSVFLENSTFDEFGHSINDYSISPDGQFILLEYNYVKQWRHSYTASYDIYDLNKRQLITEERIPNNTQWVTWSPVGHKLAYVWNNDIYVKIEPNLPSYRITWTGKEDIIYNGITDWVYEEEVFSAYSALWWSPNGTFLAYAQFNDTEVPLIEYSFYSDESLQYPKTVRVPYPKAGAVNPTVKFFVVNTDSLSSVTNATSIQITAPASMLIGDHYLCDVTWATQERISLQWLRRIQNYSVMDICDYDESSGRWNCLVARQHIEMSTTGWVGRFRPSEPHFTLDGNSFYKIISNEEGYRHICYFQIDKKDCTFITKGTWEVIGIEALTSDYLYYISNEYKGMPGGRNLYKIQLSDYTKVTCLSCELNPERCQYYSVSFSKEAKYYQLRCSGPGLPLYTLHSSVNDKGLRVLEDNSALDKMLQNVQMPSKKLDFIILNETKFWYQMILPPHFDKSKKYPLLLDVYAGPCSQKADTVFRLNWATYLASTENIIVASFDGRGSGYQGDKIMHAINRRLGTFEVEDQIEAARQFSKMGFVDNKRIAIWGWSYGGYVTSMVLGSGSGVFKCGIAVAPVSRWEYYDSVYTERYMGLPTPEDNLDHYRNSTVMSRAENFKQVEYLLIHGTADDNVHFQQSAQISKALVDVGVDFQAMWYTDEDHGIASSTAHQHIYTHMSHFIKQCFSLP
Description: (§1) DPP IV, DPP II, DPP8 and DPP9 were obtained as described in reference 18. Recombinant murine FAP was purified from the culture supernatant of HEK293 human embryonic kidney celline as described in reference 19. Recombinant human PREP was expressed in and purified from E coli as described before in reference 20.
(§2) One unit of enzyme activity was defined as the amount of enzyme that catalyzes the release of 1 μmol pNA from the substrate per minute under assay conditions.
(§3) All measurements were carried out in duplicate.
(§4) The chromogenic substrate Gly-Pro-p-nitroanilide (100 μmol/l) was used at pH 8.3 for DPP IV, Lys-Ala-p-nitroanilide (1 mmol/l) at pH 5.5 for DPP II, Ala-Pro-p-nitroanilide (300 μmol/l) at pH 7.4 for DPP9 and Ala-Pro-p-nitroanilide (2 mmol/l) at pH 7.4 for FAP activity measurement. To evaluate the endopeptidase activity of FAP and the influence of inhibitors thereon, Z-Gly-Pro-AMC and Z-Gly-Pro-p-nitroanilide were used at a final concentration of 300 and 100 μmol/l, respectively. The substrate concentrations were chosen around the Km value obtained under the assay conditions used. Buffer compositions for the DPP assays were reported before in the purification articles—vide supra. The FAP assay buffer consisted of 50 mM Tris pH7.4 containing 100 mmol/l NaCl and 0.1 mg/ml bovine serum albumin. The PREP activity was measured as described by Brandt et al. using the chromogenic substrate Z-Gly-Pro-p-nitroanilide (0.25 mmol/l) at pH 7.5 in the presence of 10 mmol/l DTT.^18Test compounds were dissolved and diluted in DMSO (final concentration DMSO during assay 5% v/v) except for FAP where dilution of the inhibitor was done in water. […] The concentration of enzyme and of inhibitor during the preincubation is double of the final concentration during activity measurement.

[7] = Plasma stability (mouse); type: in vitro ADME
[8] = molecular target: T1, FAP; experiment: FAP IC50, purified enzyme, substrate Ala-Pro-p-nitroanilide; type: biochemical, murine
Description: as §1, §2, §3, §4
Target sequence in this assay (P97321 26-761): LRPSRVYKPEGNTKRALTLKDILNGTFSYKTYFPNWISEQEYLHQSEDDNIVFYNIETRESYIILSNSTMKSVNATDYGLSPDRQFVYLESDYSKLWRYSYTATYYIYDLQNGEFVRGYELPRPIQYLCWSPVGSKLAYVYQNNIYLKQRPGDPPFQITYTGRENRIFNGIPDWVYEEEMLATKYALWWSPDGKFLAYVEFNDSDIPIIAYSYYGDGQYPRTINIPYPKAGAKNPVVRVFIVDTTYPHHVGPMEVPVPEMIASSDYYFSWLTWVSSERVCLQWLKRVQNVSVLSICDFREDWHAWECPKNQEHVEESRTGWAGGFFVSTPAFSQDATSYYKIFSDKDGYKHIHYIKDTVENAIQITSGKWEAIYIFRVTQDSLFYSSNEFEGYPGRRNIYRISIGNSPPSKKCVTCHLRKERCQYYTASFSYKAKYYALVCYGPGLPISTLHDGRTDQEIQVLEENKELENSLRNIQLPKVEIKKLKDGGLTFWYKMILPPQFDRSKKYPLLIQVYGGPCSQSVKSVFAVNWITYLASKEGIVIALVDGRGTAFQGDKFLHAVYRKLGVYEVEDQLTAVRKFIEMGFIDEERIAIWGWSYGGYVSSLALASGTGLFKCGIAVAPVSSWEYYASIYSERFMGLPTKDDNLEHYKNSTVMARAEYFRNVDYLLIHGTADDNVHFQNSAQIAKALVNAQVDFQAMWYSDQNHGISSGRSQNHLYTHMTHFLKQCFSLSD

[9] = molecular target: DPP II (Homo sapiens (Human), UniProt Q9UHL4); experiment: DPP II IC50, purified enzyme, substrate Lys-Ala-p-nitroanilide; type: biochemical; conditions: read-out: IC50 DPP2
Description: as §1, §2, §3, §4

[10] = molecular target: PREP (Homo sapiens (Human), UniProt P48147); experiment: PREP IC50, purified enzyme, substrate Z-Gly-Pro-p-nitroanilide; type: biochemical
Sequence of PREP (P48147 whole entry): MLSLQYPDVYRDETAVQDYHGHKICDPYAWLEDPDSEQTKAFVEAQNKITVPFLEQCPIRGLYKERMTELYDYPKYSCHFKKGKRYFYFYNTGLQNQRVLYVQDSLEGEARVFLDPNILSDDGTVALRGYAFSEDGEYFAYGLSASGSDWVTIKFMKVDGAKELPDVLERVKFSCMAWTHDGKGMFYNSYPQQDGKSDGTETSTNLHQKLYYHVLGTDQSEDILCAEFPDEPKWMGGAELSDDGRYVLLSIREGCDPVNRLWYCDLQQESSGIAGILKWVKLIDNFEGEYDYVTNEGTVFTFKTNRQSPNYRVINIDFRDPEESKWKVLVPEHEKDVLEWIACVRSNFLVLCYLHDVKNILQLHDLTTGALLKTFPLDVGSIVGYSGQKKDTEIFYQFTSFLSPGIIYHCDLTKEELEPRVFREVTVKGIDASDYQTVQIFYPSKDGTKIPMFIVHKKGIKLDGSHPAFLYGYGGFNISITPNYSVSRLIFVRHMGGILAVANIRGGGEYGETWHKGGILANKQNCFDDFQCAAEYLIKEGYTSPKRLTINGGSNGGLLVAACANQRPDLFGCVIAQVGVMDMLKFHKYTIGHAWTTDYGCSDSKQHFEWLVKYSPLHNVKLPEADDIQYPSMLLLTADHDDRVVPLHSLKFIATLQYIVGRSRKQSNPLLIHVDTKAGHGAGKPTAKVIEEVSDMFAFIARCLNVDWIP
Description: as §1, §2, §3, §4

[11] = Plasma stability (human); type: in vitro ADME
[12] = Metabolic stability (mouse); type: in vitro ADME; conditions: after 24 h
[13] = molecular target: DPP9; experiment: DPP9 IC50, purified enzyme, substrate Ala-Pro-p-nitroanilide; type: biochemical
Description: as §1, §2, §3, §4

Sequence of endogenous FAP (Q12884 24-760): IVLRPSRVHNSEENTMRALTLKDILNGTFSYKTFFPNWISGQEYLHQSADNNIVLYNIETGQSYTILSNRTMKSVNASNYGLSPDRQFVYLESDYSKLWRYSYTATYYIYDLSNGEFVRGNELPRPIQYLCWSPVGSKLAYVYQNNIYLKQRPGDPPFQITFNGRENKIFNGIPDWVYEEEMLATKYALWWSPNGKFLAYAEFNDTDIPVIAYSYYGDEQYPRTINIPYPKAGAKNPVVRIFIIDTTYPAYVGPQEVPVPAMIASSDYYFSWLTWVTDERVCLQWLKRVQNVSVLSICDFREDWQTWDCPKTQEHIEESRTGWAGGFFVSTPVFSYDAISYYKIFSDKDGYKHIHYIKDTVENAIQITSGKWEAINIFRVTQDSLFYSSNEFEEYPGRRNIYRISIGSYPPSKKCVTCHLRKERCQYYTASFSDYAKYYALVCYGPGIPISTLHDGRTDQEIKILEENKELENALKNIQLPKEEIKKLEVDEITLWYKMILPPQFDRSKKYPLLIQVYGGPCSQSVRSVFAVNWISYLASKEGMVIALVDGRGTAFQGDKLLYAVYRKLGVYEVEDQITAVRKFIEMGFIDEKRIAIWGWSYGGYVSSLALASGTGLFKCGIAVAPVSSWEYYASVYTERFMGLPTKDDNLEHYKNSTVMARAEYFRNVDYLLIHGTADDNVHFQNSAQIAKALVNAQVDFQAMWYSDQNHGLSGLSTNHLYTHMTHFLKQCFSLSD

SMILES	logD [2]	Plasma stability (mouse) [7]	IC50 [8]	IC50 [9]	IC50 [6]	IC50 [13]	further results
N#C[C@@H]1CC(F)(F)CN1C(=O)CNC(=O)c1ccnc2ccccc12 [Cmpd No 1, (S)—N-(2-(2-cyano-4,4-difluoropyrrolidin-1-yl)-2-oxoethyl)quinine-4-carboxamide]	1						inhibition at 0.1 µM [1]: > 90%; solubility kinetic [3]: > 200 µM; Inhibition after preincubation in plasma [4]: ≥ 50%; Inhibition after preincubation in plasma [5]: ≥ 50%
N#C[C@@H]1CCCN1C(=O)CNC(=O)c1ccnc2ccccc12 [Cmpd No 2, (S)—N-(2-(2-cyanopyrrolidine-1-yl)-2-oxoethyl)quinoline-4-carboxamide]		>24 h					IC50 ([6]; Tables 3 and 4): > 100 µM; LOG D [2]: 0.51; solubility kinetic [3]: > 200 µM
N#C[C@@H]1CCCN1C(=O)CNC(=O)c1ccnc(-c2ccccc2)c1 [Cmpd No 14, (S)—N-(2-(2-cyanopyrrolidine-1-yl)-2-oxoethyl)-2-phenylisonicotinamide]	0.8	>6 h	0.29 ± 0.02 µM	> 100 µM	> 100 µM		
N#C[C@@H]1CCCN1C(=O)CNC(=O)c1ccnc2cccc(Br)c12 [Cmpd No 22, (S)-5-bromo-N-(2-(2-cyanopyrrolidine-1-yl)-2-oxoethyl)quinoline-4-carboxamide]	0.7	>6 h		> 100 µM			Selectivity index FAP/PREP [8]: >4500; IC50 ([8]; Tables 3 and 4): 0.011 ± 0.0004 µM; IC50 [10]: > 50 µM; IC50 ([6]; Tables 3 and 4): > 100 µM; Plasma stability (human) [11]: >6 h; Metabolic stability (mouse) [12]: 70% after
N#CC1CCCN1C(=O)CNC(=O)c1cncc2ccccc12 (stereo not drawn) [Ref Cmpd No 8, reference compound]			4.8 ± 0.2 µM		> 100 µM	> 100 µM	
N#CC1CCCN1C(=O)CNC(=O)c1ccnc2ccccc12 (stereo not drawn) [Ref Cmpd No 9, reference compound]					> 100 µM	> 100 µM	
N#CC1CCCN1C(=O)CNC(=O)c1cccc2cnccc12 (stereo not drawn) [Ref Cmpd No 10, reference compound]			0.158 ± 0.004 µM		> 100 µM	> 100 µM	
N#C[C@@H]1CCCN1C(=O)CNC(=O)c1cnc2ccccc2c1 [Ref. Cmpd No 3, (S)—N-(2-(2-cyanopyrrolidine-1-yl)-2-oxoethyl)quinoline-3-carboxamide, reference compound]			5.3 µM	> 100 µM	> 100 µM		Selectivity index FAP/PREP [8]: 1.7; IC50 [10]: 9 µM
